From PubChem BioAssay AID248 (DTP/NCI, 2004)
“And” between values parts separate entries of the source, which are not always exact repeats. Equal entries are not always repeated. Inconclusive results and toxic doses are left out. Cut-off read from the data, not from the text of the source: active = T/C of 150% or more; inactive = T/C below 125%.

System: L1210 leukemia ip in BDF1 mice, survival T/C
Assay: NCI In Vivo Anticancer Drug Screen. Data for tumor model L1210 Leukemia (intraperitoneal) in B6D2F1 (BDF1) mice
Settings: endpoint: mean survival time, higher = longer survival
How it was run: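 In this screen, tumor-bearing mice given compound are compared to those given vehicle, and their survival values are reported as a treated-to-control quotient.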

[1] = dose: 100.0 mg/kg/injection, schedule: Q04DX002 (ip), vehicle: saline
[2] = dose: 200.0 mg/kg/injection, schedule: Q04DX002 (ip), vehicle: saline
[3] = dose: 400.0 mg/kg/injection, schedule: Q04DX002 (ip), vehicle: saline
[4] = dose: 100.0 mg/kg/injection, schedule: Q01DX009 (ip), vehicle: Klucel (hydroxypropylcellulose) (HPC)
[5] = dose: 200.0 mg/kg/injection, schedule: Q01DX009 (ip), vehicle: Klucel (hydroxypropylcellulose) (HPC)
[6] = dose: 400.0 mg/kg/injection, schedule: Q01DX009 (ip), vehicle: Klucel (hydroxypropylcellulose) (HPC)
[7] = dose: 100.0 mg/kg/injection, schedule: Q04DX003 (ip), vehicle: saline with Tween-80
[8] = dose: 100.0 mg/kg/injection, schedule: Q01DX001 (ip), vehicle: saline
[9] = dose: 200.0 mg/kg/injection, schedule: Q01DX001 (ip), vehicle: saline
[10] = dose: 400.0 mg/kg/injection, schedule: Q01DX001 (ip), vehicle: saline
[11] = dose: 75.0 mg/kg/injection, schedule: Q01DX001 (ip), vehicle: saline
[12] = dose: 150.0 mg/kg/injection, schedule: Q01DX001 (ip), vehicle: saline
[13] = dose: 100.0 mg/kg/injection, schedule: Q04DX003 (ip), vehicle: saline
[14] = dose: 100.0 mg/kg/injection, schedule: Q01DX001 (ip), vehicle: Klucel (hydroxypropylcellulose) (HPC)
[15] = dose: 100.0 mg/kg/injection, schedule: Q04DX002 (ip), vehicle: Klucel (hydroxypropylcellulose) (HPC)
[16] = dose: 100.0 mg/kg/injection, schedule: Q04DX003 (ip), vehicle: Klucel (hydroxypropylcellulose) (HPC)
[17] = dose: 200.0 mg/kg/injection, schedule: Q01DX001 (ip), vehicle: Klucel (hydroxypropylcellulose) (HPC)
[18] = dose: 200.0 mg/kg/injection, schedule: Q04DX002 (ip), vehicle: Klucel (hydroxypropylcellulose) (HPC)
[19] = dose: 200.0 mg/kg/injection, schedule: Q04DX003 (ip), vehicle: Klucel (hydroxypropylcellulose) (HPC)
[20] = dose: 400.0 mg/kg/injection, schedule: Q01DX001 (ip), vehicle: Klucel (hydroxypropylcellulose) (HPC)
[21] = dose: 400.0 mg/kg/injection, schedule: Q04DX002 (ip), vehicle: Klucel (hydroxypropylcellulose) (HPC)
[22] = dose: 400.0 mg/kg/injection, schedule: Q04DX003 (ip), vehicle: Klucel (hydroxypropylcellulose) (HPC)

Measured: T/C

OCC(O)C(O)C(O)CO (centres undefined)
inactive: [1] 107 % of control | [2] 104 % of control | [3] 96 % of control

O=C(Oc1cccc(O)c1)c1ccccc1
inactive: [4] 100 % of control | [5] 102 % of control | [6] 94 % of control

COc1cc([N+](=O)[O-])c2[nH]c(=O)ccc2c1
inactive: dose: 100.0 mg/kg/injection, schedule: Q01DX001 (ip), vehicle: carboxymethylcellulose (CMC) 97 % of control | dose: 200.0 mg/kg/injection, schedule: Q01DX001 (ip), vehicle: carboxymethylcellulose (CMC) 94 % of control | dose: 400.0 mg/kg/injection, schedule: Q01DX001 (ip), vehicle: carboxymethylcellulose (CMC) 97 % of control

CC(C)(C)C(=O)Nc1ccc(F)cc1
inactive: [4] 110 % of control | [5] 94 % of control | [6] 116 % of control

NC(=O)NC(=O)CC1NC(=O)NC1=O (centres undefined)
inactive: [1] 103 % of control | [2] 106 % of control | [3] 87 % of control

Cc1ccc(NC(=O)Oc2ccc3ccccc3c2)cc1NC(=O)Oc1ccc2ccccc2c1
inactive: dose: 100.0 mg/kg/injection, schedule: Q01DX009 (ip), vehicle: other 91 % of control | dose: 200.0 mg/kg/injection, schedule: Q01DX009 (ip), vehicle: other 93 % of control | dose: 400.0 mg/kg/injection, schedule: Q01DX009 (ip), vehicle: other 91 % of control

CCCCCCCCP(=O)(O)CCCCCCCC
inactive: dose: 25.0 mg/kg/injection, schedule: Q04DX003 (ip), vehicle: saline with Tween-80 96 % of control | dose: 50.0 mg/kg/injection, schedule: Q04DX003 (ip), vehicle: saline with Tween-80 87 % of control | [7] 91 % of control

O=[N+]([O-])c1ccc2[nH]c(O)c(N=Nc3ccccc3[N+](=O)[O-])c2c1
inactive: [8] 98 % of control | [9] 96 % of control | [10] 105 % of control

CC(C)NCCOC(=O)c1ccc(N)cc1
inactive: [11] 102 % of control | [12] 105 % of control

C=C1C(=O)OC2C1C1CC1(C)C1CC(OC(C)=O)C(C)C21O (centres undefined)
inactive: dose: 50.0 mg/kg/injection, schedule: Q01DX001 (ip), vehicle: water 103 % of control | dose: 100.0 mg/kg/injection, schedule: Q01DX001 (ip), vehicle: water 92 % of control | dose: 200.0 mg/kg/injection, schedule: Q01DX001 (ip), vehicle: water 103 % of control

Oc1ccc2ccccc2c1Cc1ccccc1
inactive: dose: 100.0 mg/kg/injection, schedule: Q01DX009 (ip), vehicle: saline with Tween-80 99 % of control | dose: 200.0 mg/kg/injection, schedule: Q01DX009 (ip), vehicle: saline with Tween-80 89 % of control | dose: 400.0 mg/kg/injection, schedule: Q01DX009 (ip), vehicle: saline with Tween-80 92 % of control

CC12OC3C4C(=O)OC1C1OC4(C)C3C(=O)OC12
inactive: [13] 102 % of control | dose: 200.0 mg/kg/injection, schedule: Q04DX003 (ip), vehicle: saline 97 % of control | dose: 400.0 mg/kg/injection, schedule: Q04DX003 (ip), vehicle: saline 95 % of control

CC1C(=O)OC2CC[N+]3([O-])CC=C(COC(=O)C(C)(O)C1(C)O)C23 (centres undefined)
inactive: [8] 96 % of control | [9] 96 % of control | [10] 102 % of control

CCN(CC)c1ccc(/C=N/Nc2nnc(N/N=C/c3ccc(N(CC)CC)cc3)c3ccccc23)cc1
inactive: dose: 50.0 mg/kg/injection, schedule: Q01DX001 (ip), vehicle: saline 94 % of control | [8] 92 % of control | [9] 105 % of control

Nc1nc2ncc(CNc3ccc(CC(=O)NC(CCC(=O)O)C(=O)O)cc3)nc2c(=O)[nH]1 (centres undefined)
inactive: [11] 103 % of control | [12] 103 % of control

CC1(C)OC2COC(c3cc(C(N)=O)n[nH]3)C2O1 (centres undefined)
inactive: [7] 97 % of control | dose: 200.0 mg/kg/injection, schedule: Q04DX003 (ip), vehicle: saline with Tween-80 100 % of control | dose: 400.0 mg/kg/injection, schedule: Q04DX003 (ip), vehicle: saline with Tween-80 100 % of control

CC(C)(C)OC(=O)CC1(C)CCC2C1C(=O)OC2(C)C (centres undefined)
inactive: dose: 25.0 mg/kg/injection, schedule: Q04DX003 (ip), vehicle: saline 98 % of control | dose: 50.0 mg/kg/injection, schedule: Q04DX003 (ip), vehicle: saline 98 % of control | [8] 91 % of control | [13] 102 % of control

O=C(Nc1ccccc1C(F)(F)F)c1ccc(F)cc1
inactive: [14] 99 % of control | [4] 95 % of control and 103 % of control | [15] 98 % of control and 121 % of control | [16] 105 % of control | [17] 95 % of control | [5] 94 % of control and 95 % of control | [18] 100 % of control and 101 % of control | [19] 100 % of control | [20] 104 % of control | [6] 95 % of control and 97 % of control | [21] 96 % of control and 100 % of control | [22] 113 % of control

CCCCCS(=O)(=O)N1CCCCC1
inactive: dose: 100.0 mg/kg/injection, schedule: Q04DX002 (ip), vehicle: other 103 % of control | dose: 200.0 mg/kg/injection, schedule: Q04DX002 (ip), vehicle: other 92 % of control | dose: 400.0 mg/kg/injection, schedule: Q04DX002 (ip), vehicle: other 107 % of control

CN1CCN(C(=O)c2ccc(C(=O)N3CCN(C)CC3)cc2)CC1
inactive: dose: 15.0 mg/kg/injection, schedule: Q01DX Z (ip), vehicle: saline 94 % of control | dose: 30.0 mg/kg/injection, schedule: Q01DX Z (ip), vehicle: saline 94 % of control | dose: 60.0 mg/kg/injection, schedule: Q01DX Z (ip), vehicle: saline 108 % of control | dose: 120.0 mg/kg/injection, schedule: Q01DX Z (ip), vehicle: saline 102 % of control | dose: 125.0 mg/kg/injection, schedule: Q01DX Z (ip), vehicle: carboxymethylcellulose (CMC) 96 % of control | dose: 250.0 mg/kg/injection, schedule: Q01DX Z (ip), vehicle: carboxymethylcellulose (CMC) 102 % of control | dose: 500.0 mg/kg/injection, schedule: Q01DX Z (ip), vehicle: carboxymethylcellulose (CMC) 90 % of control

CCC1(O)CC(OC2CC(N(C)C)C(OC3CC(O)C(O)C(C)O3)C(C)O2)c2c(cc3c(c2O)C(=O)c2c(O)ccc(O)c2C3=O)C1C(=O)OC (centres undefined)
inactive: dose: 1.6 mg/kg/injection, schedule: Q01DX001 (ip), vehicle: saline 108 % of control | dose: 3.2 mg/kg/injection, schedule: Q01DX001 (ip), vehicle: saline 104 % of control | dose: 6.4 mg/kg/injection, schedule: Q01DX001 (ip), vehicle: saline 105 % of control

CCOC(=O)C1C2/C=C/CCCCC21 (centres undefined)
inactive: dose: 100.0 mg/kg/injection, schedule: Q04DX002 (ip), vehicle: saline with Tween-80 105 % of control | dose: 200.0 mg/kg/injection, schedule: Q04DX002 (ip), vehicle: saline with Tween-80 112 % of control | dose: 400.0 mg/kg/injection, schedule: Q04DX002 (ip), vehicle: saline with Tween-80 98 % of control

Cc1ccc(-c2ccc(-c3ccc(C)cc3)o2)cc1
inactive: [14] 95 % of control | [17] 102 % of control and 90 % of control | [20] 94 % of control

Cc1cc(NC(=O)Nc2cc([N+](=O)[O-])ccc2Cl)no1
inactive: [14] 89 % of control | [4] 96 % of control and 98 % of control | [15] 104 % of control and 91 % of control | [16] 96 % of control | [5] 106 % of control and 90 % of control | [18] 95 % of control and 98 % of control | [19] 97 % of control | [6] 98 % of control | [21] 95 % of control and 106 % of control | [22] 97 % of control

Cc1cc(C)c(CN)cc1C
inactive: dose: 5.0 mg/kg/injection, schedule: Q04DX003 (ip), vehicle: saline with Tween-80 95 % of control | dose: 10.0 mg/kg/injection, schedule: Q04DX003 (ip), vehicle: saline with Tween-80 95 % of control | dose: 20.0 mg/kg/injection, schedule: Q04DX003 (ip), vehicle: saline with Tween-80 95 % of control
